Assay results from PubChem BioAssay AID2060483 (Molecular Pharmacology Branch, DTP, NCI, 2025).

Tested on: K24384-001-R-PDC complex spheroids, viability
Assay: Anticancer human tumor K24384-001-R-PDC patient-derived pancreatic adenocarcinoma cell line growth inhibition [GQUAD]
Settings: for IC50: curve of first compound; for viability, T/C: stronger effect = lower value
In short: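 Multi-cell-type spheroids of tumor cells with HUVEC and mesenchymal stem cells, treated with drug combinations. Concentrations descend in half-log steps from near clinical Cmax, or from 10 microM where Cmax is unknown; viability read-out.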

[1] = second compound 0.0316 µM, first compound 0.0316 µM
[2] = second compound 0.0316 µM, first compound 0.1 µM
[3] = second compound 0.0316 µM, first compound 0.316 µM
[4] = second compound 0.0316 µM, first compound 1 µM
[5] = second compound 0.0316 µM, first compound 3.16 µM
[6] = second compound 0.0316 µM, first compound 10 µM
[7] = second compound 0.1 µM, first compound 0.0316 µM
[8] = second compound 0.1 µM, first compound 0.1 µM
[9] = second compound 0.1 µM, first compound 0.316 µM
[10] = second compound 0.1 µM, first compound 1 µM
[11] = second compound 0.1 µM, first compound 3.16 µM
[12] = second compound 0.1 µM, first compound 10 µM
[13] = second compound 0.316 µM, first compound 0.0316 µM
[14] = second compound 0.316 µM, first compound 0.1 µM
[15] = second compound 0.316 µM, first compound 0.316 µM
[16] = second compound 0.316 µM, first compound 1 µM
[17] = second compound 0.316 µM, first compound 3.16 µM
[18] = second compound 0.316 µM, first compound 10 µM
[19] = second compound 1 µM, first compound 0.0316 µM
[20] = second compound 1 µM, first compound 0.1 µM
[21] = second compound 1 µM, first compound 0.316 µM
[22] = second compound 1 µM, first compound 1 µM
[23] = second compound 1 µM, first compound 3.16 µM
[24] = second compound 1 µM, first compound 10 µM
[25] = second compound 3.16 µM, first compound 0.0316 µM
[26] = second compound 3.16 µM, first compound 0.1 µM
[27] = second compound 3.16 µM, first compound 0.316 µM
[28] = second compound 3.16 µM, first compound 1 µM
[29] = second compound 3.16 µM, first compound 3.16 µM
[30] = second compound 3.16 µM, first compound 10 µM
[31] = second compound 10 µM, first compound 0.0316 µM
[32] = second compound 10 µM, first compound 0.1 µM
[33] = second compound 10 µM, first compound 0.316 µM
[34] = second compound 10 µM, first compound 1 µM
[35] = second compound 10 µM, first compound 3.16 µM
[36] = second compound 10 µM, first compound 10 µM
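Note: spheroids exposed to compounds for seven days.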

**Q.** For `C#Cc1c(F)ccc2cc(O)cc(-c3ncc4c(N5CC6CCC(C5)N6)nc(OCC56CCCN5CC(F)C6)nc4c3F)c12` (centres undefined) + CN(C)c1ccc(Nc2c3ccc(NC(=O)CCN4CCCC4)cc3nc3cc(NC(=O)CCN4CCCC4)ccc23)cc1, which IC50 (second compound 0.0316 µM) is on record?
**A.** The IC50 was 1050 nM.

**Q.** What about the IC50 (second compound 0.1 µM) of the same compound?
**A.** Its IC50 is 1690 nM.

**Q.** And the IC50 (second compound 0.316 µM)?
**A.** The IC50 was 1520 nM.

**Q.** And the IC50 (second compound 1 µM)?
**A.** The IC50 was 1780 nM.

**Q.** And the IC50 (second compound 3.16 µM)?
**A.** The IC50 was 1750 nM.

**Q.** What about the IC50 (second compound 10 µM) of the same compound?
**A.** Its IC50 is 1120 nM.

**Q.** And the viability, T/C [1]?
**A.** Its viability, T/C is 101%.

**Q.** What about the viability, T/C [2] of the same compound?
**A.** Its viability, T/C is 84.6%.

**Q.** And the viability, T/C [3]?
**A.** The viability, T/C was 68.1%.

**Q.** What about the viability, T/C [4] of the same compound?
**A.** Its viability, T/C is 51.5%.

**Q.** And the viability, T/C [5]?
**A.** Its viability, T/C is 32.5%.

**Q.** And the viability, T/C [6]?
**A.** The viability, T/C was 14.4%.

**Q.** What about the viability, T/C [7] of the same compound?
**A.** The viability, T/C was 109%.

**Q.** What about the viability, T/C [8] of the same compound?
**A.** The viability, T/C was 105%.

**Q.** And the viability, T/C [9]?
**A.** The viability, T/C was 78.2%.

**Q.** What about the viability, T/C [10] of the same compound?
**A.** The viability, T/C was 63.9%.

**Q.** And the viability, T/C [11]?
**A.** The viability, T/C was 36.1%.

**Q.** What about the viability, T/C [12] of the same compound?
**A.** Its viability, T/C is 16%.

**Q.** And the viability, T/C [13]?
**A.** Its viability, T/C is 87.7%.

**Q.** And the viability, T/C [14]?
**A.** The viability, T/C was 108%.

**Q.** And the viability, T/C [15]?
**A.** Its viability, T/C is 85%.

**Q.** What about the viability, T/C [16] of the same compound?
**A.** The viability, T/C was 61.5%.

**Q.** What about the viability, T/C [17] of the same compound?
**A.** The viability, T/C was 31.1%.

**Q.** What about the viability, T/C [18] of the same compound?
**A.** The viability, T/C was 20.1%.

**Q.** What about the viability, T/C [19] of the same compound?
**A.** The viability, T/C was 104%.

**Q.** What about the viability, T/C [20] of the same compound?
**A.** Its viability, T/C is 82.1%.

**Q.** And the viability, T/C [21]?
**A.** The viability, T/C was 90.4%.

**Q.** And the viability, T/C [22]?
**A.** Its viability, T/C is 58.1%.

**Q.** And the viability, T/C [23]?
**A.** The viability, T/C was 38.7%.

**Q.** And the viability, T/C [24]?
**A.** The viability, T/C was 17.6%.

**Q.** And the viability, T/C [25]?
**A.** Its viability, T/C is 89.3%.

**Q.** What about the viability, T/C [26] of the same compound?
**A.** The viability, T/C was 85.8%.

**Q.** What about the viability, T/C [27] of the same compound?
**A.** Its viability, T/C is 92.3%.

**Q.** And the viability, T/C [28]?
**A.** Its viability, T/C is 61.9%.

**Q.** And the viability, T/C [29]?
**A.** The viability, T/C was 35.5%.

**Q.** What about the viability, T/C [30] of the same compound?
**A.** Its viability, T/C is 14.4%.

**Q.** And the viability, T/C [31]?
**A.** The viability, T/C was 92.5%.

**Q.** And the viability, T/C [32]?
**A.** The viability, T/C was 77%.

**Q.** And the viability, T/C [33]?
**A.** The viability, T/C was 68.5%.

**Q.** And the viability, T/C [34]?
**A.** The viability, T/C was 55.1%.

**Q.** And the viability, T/C [35]?
**A.** Its viability, T/C is 30.1%.

**Q.** And the viability, T/C [36]?
**A.** The viability, T/C was 7.21%.

**Q.** Which IC50 (second compound 0.0316 µM) does the source give for `CC(=O)O[C@H]1C(=O)[C@@]2(C)[C@H]([C@H](OC(=O)c3ccccc3)[C@]3(O)C[C@H](OC(=O)[C@H](O)[C@@H](NC(=O)c4ccccc4)c4ccccc4)C(C)=C1C3(C)C)[C@]1(OC(C)=O)CO[C@@H]1C[C@@H]2O` + CN(C)c1ccc(Nc2c3ccc(NC(=O)CCN4CCCC4)cc3nc3cc(NC(=O)CCN4CCCC4)ccc23)cc1 here?
**A.** Its IC50 is under 31.6 nM.

**Q.** And the IC50 (second compound 0.1 µM)?
**A.** The IC50 was under 31.6 nM.

**Q.** What about the IC50 (second compound 0.316 µM) of the same compound?
**A.** The IC50 was under 31.6 nM.

**Q.** And the IC50 (second compound 1 µM)?
**A.** Its IC50 is under 31.6 nM.

**Q.** And the IC50 (second compound 3.16 µM)?
**A.** The IC50 was under 31.6 nM.

**Q.** What about the IC50 (second compound 10 µM) of the same compound?
**A.** Its IC50 is under 31.6 nM.

**Q.** What about the viability, T/C [1] of the same compound?
**A.** The viability, T/C was 32.2%.

**Q.** And the viability, T/C [2]?
**A.** The viability, T/C was 22.9%.

**Q.** What about the viability, T/C [3] of the same compound?
**A.** Its viability, T/C is 20.5%.

**Q.** What about the viability, T/C [4] of the same compound?
**A.** Its viability, T/C is 20.1%.

**Q.** And the viability, T/C [5]?
**A.** The viability, T/C was 22.4%.

**Q.** What about the viability, T/C [6] of the same compound?
**A.** The viability, T/C was 25.3%.

**Q.** What about the viability, T/C [7] of the same compound?
**A.** Its viability, T/C is 34.5%.

**Q.** What about the viability, T/C [8] of the same compound?
**A.** Its viability, T/C is 22.1%.

**Q.** And the viability, T/C [9]?
**A.** The viability, T/C was 18.5%.

**Q.** And the viability, T/C [10]?
**A.** The viability, T/C was 21.3%.

**Q.** What about the viability, T/C [11] of the same compound?
**A.** The viability, T/C was 20.7%.

**Q.** What about the viability, T/C [12] of the same compound?
**A.** Its viability, T/C is 25.7%.

**Q.** What about the viability, T/C [13] of the same compound?
**A.** The viability, T/C was 37.3%.

**Q.** And the viability, T/C [14]?
**A.** The viability, T/C was 22.4%.

**Q.** What about the viability, T/C [15] of the same compound?
**A.** The viability, T/C was 17.6%.

**Q.** And the viability, T/C [16]?
**A.** Its viability, T/C is 19.8%.

**Q.** And the viability, T/C [17]?
**A.** The viability, T/C was 19.5%.

**Q.** And the viability, T/C [18]?
**A.** The viability, T/C was 25.7%.

**Q.** And the viability, T/C [19]?
**A.** Its viability, T/C is 33.4%.

**Q.** What about the viability, T/C [20] of the same compound?
**A.** Its viability, T/C is 23.7%.

**Q.** And the viability, T/C [21]?
**A.** Its viability, T/C is 19.3%.

**Q.** And the viability, T/C [22]?
**A.** Its viability, T/C is 19.9%.

**Q.** And the viability, T/C [23]?
**A.** Its viability, T/C is 26.1%.

**Q.** And the viability, T/C [24]?
**A.** Its viability, T/C is 27.5%.

**Q.** And the viability, T/C [25]?
**A.** The viability, T/C was 29.4%.

**Q.** What about the viability, T/C [26] of the same compound?
**A.** Its viability, T/C is 20.7%.

**Q.** And the viability, T/C [27]?
**A.** Its viability, T/C is 24.4%.

**Q.** What about the viability, T/C [28] of the same compound?
**A.** The viability, T/C was 17.4%.

**Q.** What about the viability, T/C [29] of the same compound?
**A.** The viability, T/C was 23.2%.

**Q.** What about the viability, T/C [30] of the same compound?
**A.** Its viability, T/C is 30.1%.

**Q.** What about the viability, T/C [31] of the same compound?
**A.** The viability, T/C was 38.2%.

**Q.** And the viability, T/C [32]?
**A.** The viability, T/C was 26.4%.

**Q.** And the viability, T/C [33]?
**A.** Its viability, T/C is 24.9%.

**Q.** What about the viability, T/C [34] of the same compound?
**A.** Its viability, T/C is 24.5%.

**Q.** And the viability, T/C [35]?
**A.** The viability, T/C was 33.9%.

**Q.** What about the viability, T/C [36] of the same compound?
**A.** Its viability, T/C is 40.9%.
